{"source": "patent US9295190B2", "about": "“Seed treatment composition” (DSM IP ASSETS B.V., priority 2011, dated 2016)", "key": {"[1]": {"system": "Tomato (Solanum lycopersicum) seeds", "test": "Germination of drum primed, encrusted tomato seeds", "format": "in vivo", "settings": "after both 10 and 19 days of incubation", "experimental": "(§1) Subsequently, the seeds were germinated in trays of sterile, buffered (i.e. with calcium nitrate to pH of 6.7) cocopeat, which is a stable growth medium commonly used and accepted for e.g. simulation of seed germination in the horticultural industry. The 50 seeds planted per treatment were subjected to an ambient temperature of minimally 1.4° C. during night time and maximally 26.9° C. during day time (average temperature 13.6° C.) for 19 days and continuously irrigated to field capacity. The average relative humidity during the trial was 72%. During the trial, the trays with cocopeat were irrigated 3 to 5 times per day. The trays were perforated at the bottom leading to direct removal of excess water. This way, the cocopeat could be kept at field capacity. After 15, 17 and 19 days, the germination percentage was determined according to ISTA standards (see Handbook International Rules for Seed Testing, Edition 2011, Chapter 5, pages 5-32, published by the International Seed Testing Association, Switzerland).\nTomato (Solanum lycopersicum) seeds were primed (i.e. brought to same germination level) using drum priming. Subsequently, the primed tomato seeds were either not treated further or encrusted with composition 6 of Table 1 according to the method as described in Example 1. […] After 10 and 19 days, the germination percentage was determined using the ISTA method described in Example 11."}, "[2]": {"system": "Watermelon (Citrullus lanatus) seeds", "test": "Germination of coated watermelon seeds in cocopeat", "format": "in vivo", "from_the_text": "Watermelon (Citrullus lanatus) seeds were untreated or coated with a composition comprising 1.5 gram polyvinylpyrrolidone and 9 gram natamycin product (i.e. Delvocid®, a product comprising 50% (w/w) natamycin) per kg of seed. This composition was applied as described in Example 10.\nas §1"}}, "data": [{"molecule": "C[C@@H]1C/C=C/C=C/C=C/C=C/[C@H](O[C@@H]2O[C@H](C)[C@@H](O)[C@H](N)[C@@H]2O)C[C@@H]2O[C@](O)(C[C@@H](O)C[C@H]3O[C@@H]3/C=C/C(=O)O1)C[C@H](O)[C@H]2C(=O)O", "note": "[natamycin]", "values": [{"measurement": "Germination percentage in excess of the control seeds", "setting": "[1]", "value": 10, "unit": "%"}, {"measurement": "Germination percentage in excess of the untreated seeds", "setting": "[2]; after 15 days of incubation", "value": 18, "unit": "%"}, {"measurement": "Germination percentage in excess of the untreated seeds", "setting": "[2]; after 17 days of incubation", "value": 34, "unit": "%"}, {"measurement": "Germination percentage in excess of the untreated seeds", "setting": "[2]; after 19 days of incubation", "value": 38, "unit": "%"}]}]}
